Paper PMC10527105, “Chirality Matters: Fine-Tuning of Novel Monoamine Reuptake Inhibitors Selectivity through Manipulation of Stereochemistry” (Biomolecules, 2023)
Entries after “also recorded” stand apart in the source; their conditions may differ. Like-named read-outs stand apart in the source and are kept apart here.

Legend:
[1] = Compound brain levels after intraperitoneal injection; format: in vivo; conditions: single intraperitoneal injection, 10 mg/kg, Sprague–Dawley rats
Protocol: Compound brain levels. For an in-depth description of the brain and blood at 7h, we refer to the protocol of Evotec (France, Study No. DMPK-2020-494) in the supplementary information file.

[2] = biological target: T1, DAT-expressing SK-N-MC cells (Homo sapiens, UniProt Q01959); assay: Superfusion experiments: [3H]MPP+ efflux and d-amphetamine interaction; format: cell-based; conditions: for action on the dopamine-releasing effect of D-amphetamine: 3 µM D-amphetamine; for efflux-increasing (releasing) action on DAT-expressing, substrate-loaded superfused cells: compound alone
T1 construct: expressed in transfected cells; host or cells: SK-N-MC (human neuroblastoma)

human DAT = biological target: T2, human DAT (Homo sapiens, UniProt Q01959); assay: Radioligand binding assay, [3H]BTCP, CHO cells (Eurofins Cerep)
T2 construct: host or cells: CHO
Protocol: Binding experiments. Binding affinity to the human DAT, SERT, and NET stable proteins expressed in CHO cells was evaluated in in vitro radioligand binding assays. Non-specific binding was determined using [^3H]BTCP, [^3H]imipramine, and ^[3H] nisoxetine for hDAT, hSERT, and hNET, respectively. The IC50 values were calculated by non-linear regression analysis of the competition curves generated from the mean replicate values. The Ki values were calculated using the Cheng–Prusoff equation (Ki = IC50/(1 + […])). Binding assays were carried out by Eurofins (Cerep SA, Celle l’Evescault, France), Study No. 100053935. For an in-depth description, please refer to the report in the supporting information file.

rat cortical neurons = assay: Neurite outgrowth assay (Cyprotex); format: cell-based; conditions: for IC50: Rattus norvegicus, Cortical neurone, 72 h; for window between neurite outgrowth effect concentration and active concentration: effect at 100 µM compared to the active concentration; for effect on valid neuron count, mean neurite average length and neurite total length per neuron: only at 100 µM (top concentration tested); for effect on neurite outgrowth in relation to effect on cell viability: rat cortical neurons; for cell-toxic effects: up to a concentration of 50 µM
Protocol: Neurite outgrowth assay. […] were carried out by Cyprotex (an Evotec Company, Toulouse, France), Study No. CYP2052-R1. For an in-depth description, please refer to the report in the supporting information files. Cryo-preserved rat cortical neurons (QBM Cell Science, R-Cx-500) were quickly thawed and slowly diluted with neurobasal medium supplemented with L-glutamine (Invitrogen, Cat. No. 25030-081), penicillin-streptomycin (Invitrogen, Cat. No. 15140-122), and B27 (NB/B27 medium, Invitrogen, Cat. No. 17504-044). After a gentle centrifugation step, the neurons were resuspended in NB/B27 medium at a density of 4.0 × 10^6 cells/mL. One hour prior to treatment, the neurons were plated in 384-well plates (Corning 354663) pre-coated with a laminin solution (Sigma L2020 1 mg/mL) at a density of 10,000 cells per well. After treatment with test articles and control compounds, the neurons were maintained in a humidified environment at 37 °C with 5% CO2 for 72 h. At the end of the treatment period, the neurons were fixed for 1 h with a 3.7% formaldehyde solution (Acros Organics, 41073-0010). The neurons were washed with phosphate buffered saline (PBS) (SH30264.02) and permeabilized for 10 min with a 0.5% solution of Triton X-100 (Millipore Sigma, X100). After another wash step, the neurons were stained for one hour with Hoechst 33342 (ThermoFisher Scientific, H3570) and the anti-beta III tubulin antibody, Alexa Fluor® 488 conjugate (Millipore Sigma AB15708A4), diluted in a blocking buffer solution (Thermo Scientific, 37525). Upon completion of the staining step, the neurons were washed again, and the plates were sealed in preparation for the imaging process. The neurons were evaluated for neurite outgrowth and cell health using the high-content imaging platform, ArrayScan VTi (Thermo Scientific ArrayScan VTi), with an optimized neuronal profiling bio-application.
This assay assessed cell health and neurite outgrowth utilizing a neuronal profiling bio-application applied to images obtained on an ArrayScan VTi. Valid neuron count, mean neurite average length, and neurite total length per neuron were determined and reported. Raw data were normalized to the vehicle control and reported as a normalized% response. Dose response graphs were generated with GraphPad Prism using a sigmoidal dose-response (variable slope) algorithm.

[3] = biological target: T3, noradrenaline transporter/SLC6A2 (NET) (Homo sapiens, UniProt P23975); assay: Cellular uptake experiments: [3H]-noradrenaline reuptake inhibition in transporter-expressing HEK293 cells; format: cell-based
T3 construct: expressed in transfected cells; host or cells: HEK293
Summary of the method: (§1)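 Stably transfected HEK293 cells preincubated 5 min with compound, then 1 µM [3H]-substrate for 2.5 min (SERT: 5 min) at 25 °C, pH 7.1 buffer; uptake counted by scintillation. Nonspecific uptake defined with 10 µM mazindol (DAT, NET) or 10 µM clomipramine (SERT).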

[4] = biological target: T4, human serotonin transporter/SLC6A4 (SERT) (Homo sapiens, UniProt P31645); assay: Cellular uptake experiments: [3H]-serotonin reuptake inhibition in transporter-expressing HEK293 cells; format: cell-based; conditions: Reuptake Inhibition (IC50 ± SE, µM) SERT, cells stably expressing SERT; [3H]-serotonin 1 µM; screening cut-off 50 µM
T4 construct: expressed in transfected cells; host or cells: HEK293
Summary of the method: as §1

[5] = read-out: Mean Neurite Avg. Length IC50, rat cortical neurons, 72 h
[6] = read-out: Neurite Total Length per Neuron IC50, rat cortical neurons, 72 h
[7] = read-out: Valid Neuron Count IC50, rat cortical neurons, 72 h

T1 sequence (Q01959 whole entry, the tested form may be a part): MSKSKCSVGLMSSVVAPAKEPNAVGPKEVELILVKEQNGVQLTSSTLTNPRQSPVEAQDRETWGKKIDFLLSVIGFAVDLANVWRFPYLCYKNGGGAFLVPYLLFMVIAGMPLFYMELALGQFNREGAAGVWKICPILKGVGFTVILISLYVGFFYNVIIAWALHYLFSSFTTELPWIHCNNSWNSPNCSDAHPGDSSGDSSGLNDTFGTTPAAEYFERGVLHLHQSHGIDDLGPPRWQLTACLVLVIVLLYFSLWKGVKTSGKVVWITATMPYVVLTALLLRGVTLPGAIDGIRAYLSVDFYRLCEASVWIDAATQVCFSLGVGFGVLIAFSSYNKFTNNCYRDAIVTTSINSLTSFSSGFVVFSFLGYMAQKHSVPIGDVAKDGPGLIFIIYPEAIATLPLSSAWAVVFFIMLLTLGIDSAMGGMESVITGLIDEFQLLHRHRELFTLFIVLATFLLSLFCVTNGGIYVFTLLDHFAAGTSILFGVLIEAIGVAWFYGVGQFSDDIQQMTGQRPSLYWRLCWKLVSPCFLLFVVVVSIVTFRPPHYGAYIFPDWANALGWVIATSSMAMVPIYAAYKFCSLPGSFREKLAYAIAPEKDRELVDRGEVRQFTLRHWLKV
T3 sequence (P23975 whole entry): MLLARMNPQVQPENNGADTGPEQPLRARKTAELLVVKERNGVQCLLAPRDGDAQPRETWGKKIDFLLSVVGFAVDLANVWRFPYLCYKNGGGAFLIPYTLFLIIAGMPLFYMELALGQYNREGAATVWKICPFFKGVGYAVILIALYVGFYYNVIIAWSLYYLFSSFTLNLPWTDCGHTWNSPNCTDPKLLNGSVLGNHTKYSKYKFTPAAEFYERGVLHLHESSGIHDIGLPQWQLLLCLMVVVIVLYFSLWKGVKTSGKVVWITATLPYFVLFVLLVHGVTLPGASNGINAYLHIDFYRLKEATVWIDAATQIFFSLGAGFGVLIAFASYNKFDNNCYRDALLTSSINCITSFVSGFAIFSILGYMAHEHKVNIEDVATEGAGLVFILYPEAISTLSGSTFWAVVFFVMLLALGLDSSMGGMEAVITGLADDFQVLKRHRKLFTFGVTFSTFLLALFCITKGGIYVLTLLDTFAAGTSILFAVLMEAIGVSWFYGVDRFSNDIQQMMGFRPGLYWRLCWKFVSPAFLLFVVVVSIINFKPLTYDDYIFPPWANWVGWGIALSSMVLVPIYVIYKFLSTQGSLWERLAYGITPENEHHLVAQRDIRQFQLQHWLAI
T2 sequence (Q01959 whole entry): as the sequence (Q01959 whole entry, the tested form may be a part) above
T4 sequence (P31645 whole entry): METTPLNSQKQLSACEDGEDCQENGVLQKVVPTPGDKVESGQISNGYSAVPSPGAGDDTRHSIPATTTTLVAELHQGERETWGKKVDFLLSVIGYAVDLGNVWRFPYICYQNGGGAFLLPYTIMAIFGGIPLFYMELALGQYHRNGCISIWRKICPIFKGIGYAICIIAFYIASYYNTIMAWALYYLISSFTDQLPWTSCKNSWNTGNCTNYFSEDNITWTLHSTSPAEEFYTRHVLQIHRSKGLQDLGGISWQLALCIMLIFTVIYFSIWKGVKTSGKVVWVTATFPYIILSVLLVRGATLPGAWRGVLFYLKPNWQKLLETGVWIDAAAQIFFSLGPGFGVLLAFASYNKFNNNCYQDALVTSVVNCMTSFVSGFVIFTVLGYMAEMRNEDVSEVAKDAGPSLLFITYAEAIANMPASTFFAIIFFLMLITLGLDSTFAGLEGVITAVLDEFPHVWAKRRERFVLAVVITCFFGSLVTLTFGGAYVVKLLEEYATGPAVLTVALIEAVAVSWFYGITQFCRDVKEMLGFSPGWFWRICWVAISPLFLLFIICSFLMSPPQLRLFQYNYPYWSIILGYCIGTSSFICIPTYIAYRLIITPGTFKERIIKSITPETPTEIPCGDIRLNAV

| Compound | Cmax ([1]; rat, brain, ip) | half-life ([1]; rat, brain, ip) | Tmax ([1]; rat, brain, ip, read-out: median Tmax in the brain) | detectable in brain post-administration [1] | action on the dopamine-releasing effect of D-amphetamine [2] | efflux-increasing (releasing) action on DAT-expressing, substrate-loaded superfused cells [2] | Ki (human DAT) | IC50 (rat cortical neurons; [5]) | IC50 (rat cortical neurons; [6]) | IC50 (rat cortical neurons; [7]) | window between neurite outgrowth effect concentration and active concentration (rat cortical neurons) | effect on valid neuron count, mean neurite average length and neurite total length per neuron (rat cortical neurons) | effect on neurite outgrowth in relation to effect on cell viability (rat cortical neurons) | cell-toxic effects (rat cortical neurons) | IC50 [3] | IC50 [4] |
| --- | --- | --- | --- | --- | --- | --- | --- | --- | --- | --- | --- | --- | --- | --- | --- | --- |
| [O-][S@@+](Cc1cccs1)[C@@H](c1ccccc1)c1cccc(Br)c1 [Compound 7h, (S,S)-2-((((3-bromophenyl)(phenyl)methyl)sulfinyl)methyl)thiophene] | 478 ng/g | 3 h | 1 h | up to 10 h | potent inhibiting action | absence of an efflux-increasing action; also recorded: lack of amphetamine-like effects | 0.013 µM | 65.8 µM | 59.8 µM | 92.2 µM | more than 100 fold | significant decreases | not independent of their effect on cell viability | absence of cell-toxic effects | 16.4 ± 0.6 µM | > 50 µM |
| [O-][S@+](Cc1cccs1)[C@H](c1ccccc1)c1cccc(Br)c1 [Compound 8h, (R,R)-2-((((3-bromophenyl)(phenyl)methyl)sulfinyl)methyl)thiophene] | – | – | – | – | potent inhibiting action | absence of an efflux-increasing action; also recorded: lack of amphetamine-like effects | 0.035 µM | 75.2 µM | 72.2 µM | 94.6 µM | more than 100 fold | significant decreases | not independent of their effect on cell viability | absence of cell-toxic effects | > 50 µM | 14 ± 3 µM |
